# Biological target: human PCSK9 (Homo sapiens, UniProt Q8NBP7)
# Assay: PCSK9 ligand binding TR-FRET assay (interference with binding of human PCSK9 to human LDLR)
# Details: for Max % inhibition: PCSK9 FRET assay, efficacy (Amax), 100% = 1 uM unlabeled human PCSK9, 0% = DMSO; for IC50: TR-FRET, human PCSK9 Alexa Fluor 647 / human LDLR extracellular domain-Europium Kryptate, read-out: PCSK9 FRET Assay IC50
# How it was run: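 Threefold compound dilutions were pre-incubated 30 min with PCSK9, after which 4 nM Europium Kryptate-tagged human LDLR ectodomain was added for a further 2 h.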
# Chain of human PCSK9 (Q8NBP7 153-692): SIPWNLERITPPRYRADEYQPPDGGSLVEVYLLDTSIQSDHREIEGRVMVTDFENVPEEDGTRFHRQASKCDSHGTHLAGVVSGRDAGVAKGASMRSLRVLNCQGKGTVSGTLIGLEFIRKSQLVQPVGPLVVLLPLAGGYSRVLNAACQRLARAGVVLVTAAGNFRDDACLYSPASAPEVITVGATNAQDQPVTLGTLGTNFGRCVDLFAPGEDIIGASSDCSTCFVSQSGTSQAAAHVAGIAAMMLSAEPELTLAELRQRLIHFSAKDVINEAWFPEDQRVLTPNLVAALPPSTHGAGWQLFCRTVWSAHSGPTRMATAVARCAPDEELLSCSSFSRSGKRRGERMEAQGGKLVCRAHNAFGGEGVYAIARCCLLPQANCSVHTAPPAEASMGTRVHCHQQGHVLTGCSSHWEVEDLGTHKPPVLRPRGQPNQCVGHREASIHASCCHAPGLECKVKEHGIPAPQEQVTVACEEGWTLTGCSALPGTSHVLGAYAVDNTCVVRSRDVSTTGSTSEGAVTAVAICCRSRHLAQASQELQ
# Chain of human PCSK9 (Q8NBP7 31-152 partner limits assumed): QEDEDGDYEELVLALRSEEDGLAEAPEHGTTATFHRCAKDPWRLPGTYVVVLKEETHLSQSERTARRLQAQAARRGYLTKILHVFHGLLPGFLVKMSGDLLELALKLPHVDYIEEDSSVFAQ
Max % inhibition [%],IC50 [nM],Compound
42.24,249,"C[C@H]1C(=O)N[C@@H](COC(=O)C(C)(C)C)C(=O)N(C)[C@@H](Cc2ccc(Cl)cc2)CC(=O)N[C@H]2CCCC[C@@H]2N(C)C(=O)[C@H](Cc2ccccc2)CC(=O)N1Cc1ccc(Cl)cc1Oc1ccc(-c2cnc(CN(C)C)n2C)cc1 [Compound 226, ((4S,7S,10S,14R,16aS,20aS)-14-benzyl-11-(4-chloro-2-(4-(2-((dimethylamino)methyl)-1-methyl-1H-imidazol-5-yl)phenoxy)benzyl)-4-(4-chlorobenzyl)-5,10,16-trimethyl-2,6,9,12,15-pentaoxodocosahydrobenzo[l][1,4,7,11,14]pentaazacyclooctadecin-7-yl)methyl pivalate]"
104.70,8.8,"COC[C@@H]1NC(=O)[C@H](C)N(Cc2ccc(Cl)cc2Oc2ccc(-c3cnc(CN(C)C)n3C)cc2)C(=O)CN2C[C@H](CNC(=O)C[C@H](Cc3ccc(Cl)cc3)N(C)C1=O)N(C)C2=O [Compound 227, (5S,8S,11S,16S)-4-(4-chloro-2-(4-(2-((dimethylamino)methyl)-1-methyl-1H-imidazol-5-yl)phenoxy)benzyl)-11-(4-chlorobenzyl)-8-(methoxymethyl)-5,10,17-trimethyl-1,4,7,10,14,17-hexaazabicyclo[14.2.1]nonadecane-3,6,9,13,18-pentaone]"
93.92,8.4,"COC[C@@H]1NC(=O)C(C)N(Cc2ccc(F)cc2Oc2ccc(-c3cnc(CN(C)C)n3C)cc2)C(=O)C[C@@H](Cc2ccccc2)C(=O)N(C)[C@H]2CCCC[C@@H]2NC(=O)C[C@H](Cc2ccc(Cl)cc2)N(C)C1=O (stereo partly drawn) [Compound 228, (4S,7S,14R,16aS,20aS)-14-benzyl-4-(4-chlorobenzyl)-11-(2-(4-(2-((dimethylamino)methyl)-1-methyl-1H-imidazol-5-yl)phenoxy)-4-fluorobenzyl)-7-(methoxymethyl)-5,10,16-trimethylhexadecahydrobenzo[l][1,4,7,11,14]pentaazacyclooctadecine-2,6,9,12,15(3H)-pentaone]"
99.91,0.6,"COC[C@@H]1NC(=O)[C@H](C)N(Cc2ccc(Cl)cc2Oc2ccc(-c3cnc(CN4CCCC4)n3C)cc2)C(=O)C[C@@H](Cc2ccccc2F)C(=O)N(C)[C@@H](C)CNC(=O)C[C@H](Cc2ccc(Cl)cc2)N(C)C1=O [Compound 229, (2S,5S,8S,13S,16R)-1-(4-chloro-2-(4-(1-methyl-2-(pyrrolidin-1-ylmethyl)-1H-imidazol-5-yl)phenoxy)benzyl)-8-(4-chlorobenzyl)-16-(2-fluorobenzyl)-5-(methoxymethyl)-2,7,13,14-tetramethyl-1,4,7,11,14-pentaazacyclooctadecane-3,6,10,15,18-pentaone]"
46.03,77.8,"COC[C@@H]1NC(=O)[C@H](C)N(Cc2c(Cl)cccc2Oc2ccc(-c3cnc(CN(C)C)n3C)cc2)C(=O)C[C@@H](C)C(=O)N(C)[C@@H](C)CNC(=O)C[C@H](Cc2ccc(Cl)cc2)N(C)C1=O [Compound 230, (2S,5S,8S,13S,16R)-1-(2-chloro-6-(4-(2-((dimethylamino)methyl)-1-methyl-1H-imidazol-5-yl)phenoxy)benzyl)-8-(4-chlorobenzyl)-5-(methoxymethyl)-2,7,13,14,16-pentamethyl-1,4,7,11,14-pentaazacyclooctadecane-3,6,10,15,18-pentaone]"
96.17,5.7,"COC[C@@H]1NC(=O)[C@H](C)N(Cc2cccc(F)c2Oc2ccc(-c3cnc(CN(C)C)n3C)cc2)C(=O)C[C@@H](Cc2ccccc2)C(=O)N(C)[C@@H](C)CNC(=O)C[C@H](Cc2ccc(Cl)cc2)N(C)C1=O [Compound 232, (2S,5S,8S,13S,16R)-16-benzyl-8-(4-chlorobenzyl)-1-(2-(4-(2-((dimethylamino)methyl)-1-methyl-1H-imidazol-5-yl)phenoxy)-3-fluorobenzyl)-5-(methoxymethyl)-2,7,13,14-tetramethyl-1,4,7,11,14-pentaazacyclooctadecane-3,6,10,15,18-pentaone]"

# From patent publication US20230089867A1, “CYCLIC PENTAMER COMPOUNDS AS PROPROTEIN CONVERTASE SUBTILISIN/KEXIN TYPE 9 (PCSK9) INHIBITORS FOR THE TREATMENT OF METABOLIC DISORDER” (Novartis AG, priority 2018, published 2023)
